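Each compound was tested at five concentrations against cells in 96-well plates for 48 hours. GI50 marks 50% less growth. TGI denotes the concentration required for complete inhibition of growth.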

Drawing on PubChem BioAssay (NCI), this text covers TGI and GI50 for 13 compounds.

Test systems include HCT-116 colon; IGROV1 ovarian; OVCAR-5 ovarian; PC-3 prostate; SK-MEL-2 melanoma; SN12C renal; SR leukemia; TK-10 renal; UACC-62 melanoma; MALME-3M melanoma; MDA-N.
Common to all, as to experiment: NCI tumour cell line growth inhibition, 48 h

On to `O=c1onc2c3ccccc3ncn12`, for which the TGI in the assay with HCT-116 colon, in the assay on IGROV1 ovarian, in the assay with OVCAR-5 ovarian, in the assay with PC-3 prostate, with SK-MEL-2 melanoma and in the assay on SN12C renal was above 100 µM throughout. Further, the TGI in the assay with SR leukemia, in the assay with TK-10 renal and in the assay on UACC-62 melanoma was above 100 µM each time.

For `CC(C)=C/C=C1/CS(=O)(=O)C=C1C`, the TGI with HCT-116 colon, in the assay on IGROV1 ovarian, in the assay on MALME-3M melanoma, in the assay on MDA-N, with OVCAR-5 ovarian and in the assay with PC-3 prostate was above 100 µM each time. In addition, the TGI in the assay on SK-MEL-2 melanoma, with SN12C renal, in the assay with TK-10 renal and with UACC-62 melanoma was above 100 µM in each case.

Consider `O=[As](O)(O)c1ccc(N=Nc2ccc(O)cc2)cc1`, for which the TGI in the assay on HCT-116 colon, in the assay with IGROV1 ovarian, in the assay with MALME-3M melanoma, in the assay on MDA-N, with OVCAR-5 ovarian and in the assay with PC-3 prostate was above 100 µM each time. The TGI in the assay on SK-MEL-2 melanoma, in the assay on SN12C renal, with TK-10 renal and in the assay on UACC-62 melanoma was above 100 µM throughout.

Consider `COC(=O)CC1NC(=O)C1C1(C)OCCO1` (stereo unspecified), for which the TGI in the assay with HCT-116 colon, in the assay on IGROV1 ovarian, with MALME-3M melanoma, in the assay on SK-MEL-2 melanoma, in the assay on SN12C renal and with SR leukemia was above 100 µM in each case. In addition, the TGI in the assay on TK-10 renal and in the assay on UACC-62 melanoma was above 100 µM throughout.

For `Nc1ccc(C(=O)NN2C(=O)C(Cl)C2c2ccccc2)cc1` (stereo unspecified), the TGI in the assay with HCT-116 colon, with IGROV1 ovarian, in the assay with MALME-3M melanoma, with OVCAR-5 ovarian, in the assay with SK-MEL-2 melanoma and in the assay on SN12C renal was above 100 µM each time. In addition, the TGI in the assay with TK-10 renal and with UACC-62 melanoma was above 100 µM in each case.

Consider `CCC(c1c[nH]c2ccc(Br)cc12)c1c[nH]c2ccc(Br)cc12`, for which the TGI turned out to be 15.1 µM with HCT-116 colon; 19 µM in the assay with IGROV1 ovarian; 24.9 µM in the assay on MALME-3M melanoma; 16 µM in the assay on MDA-N; 16.6 µM in the assay on OVCAR-5 ovarian; 17.1 µM in the assay with PC-3 prostate. In addition, the TGI stood at 23.1 µM in the assay with SK-MEL-2 melanoma, 15.4 µM in the assay with SN12C renal, 22.9 µM with TK-10 renal and 22.2 µM with UACC-62 melanoma.

With `Fc1ccccc1C1SCc2nc3cc4ccccc4cc3n21` (stereo unspecified), the TGI in the assay on HCT-116 colon, in the assay on IGROV1 ovarian, with MALME-3M melanoma, in the assay with MDA-N, in the assay with OVCAR-5 ovarian and with PC-3 prostate was above 100 µM throughout. Further, the TGI with SK-MEL-2 melanoma, in the assay with SN12C renal, in the assay with TK-10 renal and with UACC-62 melanoma was above 100 µM each time.

As for `CCCc1ccc(NCc2cc(OC)c(OC)c(OC)c2)cc1`, the TGI was 48.3 µM in the assay on HCT-116 colon; above 100 µM in the assay with IGROV1 ovarian; 50.4 µM in the assay on MALME-3M melanoma; above 100 µM in the assay on OVCAR-5 ovarian; 44.2 µM with SK-MEL-2 melanoma; 53.2 µM with SN12C renal. For the same compound, the TGI in the assay on TK-10 renal and in the assay on UACC-62 melanoma was above 100 µM each time.

Take `CC1OC(O[C@H]2/C=C/C=C/C=C/C=C/C=C/C=C/C=C/[C@H](C)[C@@H](O)[C@@H](C)[C@H](C)OC(=O)CC(O)CC(O)CCC(O)C(O)CC(O)C[C@]3(O)C[C@H](O)C(C(=O)O)C(C2)O3)C(O)[C@H](N)C1O` (stereo partly specified): the GI50 is 1.99 µM with HCT-116 colon; 2.31 µM in the assay with IGROV1 ovarian; 1.88 µM in the assay on MALME-3M melanoma; 3.88 µM in the assay with OVCAR-5 ovarian; 1.81 µM in the assay on PC-3 prostate; 3.9 µM in the assay on SK-MEL-2 melanoma. Further, the GI50 was 1.58 µM with SN12C renal, 2.66 µM in the assay with TK-10 renal and 2.78 µM with UACC-62 melanoma. Also, the TGI stood at 4.05 µM in the assay with HCT-116 colon; 4.73 µM in the assay with IGROV1 ovarian; 3.68 µM in the assay with MALME-3M melanoma; 16.8 µM in the assay on OVCAR-5 ovarian; 3.92 µM in the assay on PC-3 prostate; 12 µM in the assay with SK-MEL-2 melanoma. In addition, the TGI with SN12C renal came out at 2.99 µM; in the assay with TK-10 renal, 5.31 µM; in the assay on UACC-62 melanoma, 7.62 µM.

As to `[N-]=[N+]=C1C(=O)C2CC3CC(C2)CC1C3`, the TGI in the assay with HCT-116 colon, in the assay on IGROV1 ovarian, with MALME-3M melanoma, in the assay on OVCAR-5 ovarian, in the assay with SK-MEL-2 melanoma and with SN12C renal was above 100 µM each time. Also, the TGI in the assay with SR leukemia, with TK-10 renal and in the assay on UACC-62 melanoma was above 100 µM in each case.

For `O=C(O)CNC(=O)c1c2ccccc2nc2ccccc12`, the TGI in the assay with HCT-116 colon, in the assay on IGROV1 ovarian, in the assay with MALME-3M melanoma, in the assay with OVCAR-5 ovarian, in the assay with PC-3 prostate and in the assay with SK-MEL-2 melanoma was above 100 µM in each case. The TGI with SN12C renal, in the assay on SR leukemia, in the assay with TK-10 renal and with UACC-62 melanoma was above 100 µM each time.

Regarding `CC(C)C1=CC23CCC4C(C)(C(=O)O)CCCC4(C)C2CC1C1C(=O)N(c2ccc(C(=O)O)cc2)C(=O)C13` (stereo unspecified), the TGI in the assay on HCT-116 colon, with IGROV1 ovarian, in the assay on MALME-3M melanoma, in the assay with MDA-N, in the assay with PC-3 prostate and in the assay on SK-MEL-2 melanoma was above 100 µM in each case. Further, the TGI with SN12C renal, with TK-10 renal and in the assay with UACC-62 melanoma was above 100 µM in each case.

As to `COc1ccc2c(c1)CCN1CCc3cc(OC)c(OC)cc3CC21` (stereo unspecified), the TGI is above 100 µM with HCT-116 colon; above 10 µM in the assay with IGROV1 ovarian; above 100 µM with OVCAR-5 ovarian; above 100 µM in the assay with SN12C renal; above 100 µM with SR leukemia; above 100 µM in the assay on TK-10 renal. This compound also registered a TGI in the assay with UACC-62 melanoma above 100 µM.
